pEC50: −log10 of the molar value. Each block holds one compound with its values, some of them ahead of it.
Legend:
immortalized melanocytes = details: cannot calculate = toxic even at lower concentration and no dose–activity curve occurred
Sk-Mel28 cells = details: read-out: EC50 in Sk-Mel28 cells; cited from earlier work
[1] = system: metastatic melanoma A375 cell line; details: read-out: EC50 in A375 cells; cited from earlier work
rat nNOS = rat nNOS (Rattus norvegicus, UniProt P29476)
Chain of rat nNOS (P29476 whole entry): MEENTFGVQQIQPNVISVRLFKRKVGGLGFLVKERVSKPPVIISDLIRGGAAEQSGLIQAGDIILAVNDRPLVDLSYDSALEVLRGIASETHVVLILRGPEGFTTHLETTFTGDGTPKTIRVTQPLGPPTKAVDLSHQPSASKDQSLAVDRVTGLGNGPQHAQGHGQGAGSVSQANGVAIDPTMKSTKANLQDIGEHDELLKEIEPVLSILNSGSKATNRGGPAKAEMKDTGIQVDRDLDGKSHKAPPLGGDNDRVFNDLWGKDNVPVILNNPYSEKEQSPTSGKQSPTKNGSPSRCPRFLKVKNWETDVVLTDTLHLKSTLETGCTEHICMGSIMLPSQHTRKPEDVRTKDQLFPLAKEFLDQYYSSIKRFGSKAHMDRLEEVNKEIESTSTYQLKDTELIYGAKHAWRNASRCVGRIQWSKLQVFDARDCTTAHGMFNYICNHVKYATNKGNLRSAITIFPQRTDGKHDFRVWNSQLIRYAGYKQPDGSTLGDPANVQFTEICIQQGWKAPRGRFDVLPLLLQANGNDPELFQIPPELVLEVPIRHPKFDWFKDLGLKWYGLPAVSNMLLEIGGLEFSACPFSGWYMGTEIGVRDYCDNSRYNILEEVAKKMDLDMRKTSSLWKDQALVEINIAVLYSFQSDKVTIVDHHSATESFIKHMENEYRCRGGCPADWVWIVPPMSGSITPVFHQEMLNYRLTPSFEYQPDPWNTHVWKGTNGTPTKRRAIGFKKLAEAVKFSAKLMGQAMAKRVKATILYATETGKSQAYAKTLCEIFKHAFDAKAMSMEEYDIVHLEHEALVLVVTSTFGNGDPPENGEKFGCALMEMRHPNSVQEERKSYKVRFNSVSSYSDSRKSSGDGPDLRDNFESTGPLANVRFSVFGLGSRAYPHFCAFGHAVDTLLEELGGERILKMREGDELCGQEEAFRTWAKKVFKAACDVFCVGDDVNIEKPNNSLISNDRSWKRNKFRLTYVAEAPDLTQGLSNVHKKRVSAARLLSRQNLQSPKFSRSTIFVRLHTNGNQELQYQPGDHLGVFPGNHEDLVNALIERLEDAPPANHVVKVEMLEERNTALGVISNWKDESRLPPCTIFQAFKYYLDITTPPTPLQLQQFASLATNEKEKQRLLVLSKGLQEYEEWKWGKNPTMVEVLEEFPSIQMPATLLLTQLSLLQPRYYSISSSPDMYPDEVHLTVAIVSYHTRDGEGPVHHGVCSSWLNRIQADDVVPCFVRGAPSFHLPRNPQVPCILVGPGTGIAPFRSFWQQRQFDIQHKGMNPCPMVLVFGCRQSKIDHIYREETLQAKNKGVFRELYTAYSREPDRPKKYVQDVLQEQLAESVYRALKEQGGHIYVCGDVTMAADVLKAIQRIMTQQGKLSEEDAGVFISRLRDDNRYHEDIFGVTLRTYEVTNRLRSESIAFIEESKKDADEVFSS

SMILES: N=C(Nc1cccc(CCNCc2cccc(NC(=N)c3cccs3)c2)c1)c1cccs1 [compound 13, N-(3-(2-((3-(Thiophene-2-carboximidamido)benzyl)amino)ethyl)phenyl)thiophene-2-carboximidamide]
- EC50 immortalized melanocytes (immortalized melanocytes): cannot calculate ^b

SMILES: N.N.[Cl][Pt][Cl] [cisplatin]
- pEC50 (Sk-Mel28 cells): 4.84
- pEC50 [1]: 5.38

- lower nNOS potency than 11 (rat nNOS): 2 fold
SMILES: N=C(Nc1cccc(OCCCOc2cccc(NC(=N)c3cccs3)c2)c1)c1cccs1 [compound 12, N,N′-((Propane-1,3-diylbis(oxy))bis(3,1-phenylene))bis(thiophene-2-carboximidamide)]

- lower nNOS potency than 16 (rat nNOS): ~7 fold
SMILES: CCN(CCc1cccc(F)c1)Cc1cccc(NC(=N)c2cccs2)c1 [compound 17, N-(3-((Ethyl(3-fluorophenethyl)amino)methyl)phenyl)thiophene-2-carboximidamide]
